The experiment deals with T1, Retinoic acid receptor RXR-beta (Homo sapiens) (UniProt P28702).
T1 sequence (whole entry): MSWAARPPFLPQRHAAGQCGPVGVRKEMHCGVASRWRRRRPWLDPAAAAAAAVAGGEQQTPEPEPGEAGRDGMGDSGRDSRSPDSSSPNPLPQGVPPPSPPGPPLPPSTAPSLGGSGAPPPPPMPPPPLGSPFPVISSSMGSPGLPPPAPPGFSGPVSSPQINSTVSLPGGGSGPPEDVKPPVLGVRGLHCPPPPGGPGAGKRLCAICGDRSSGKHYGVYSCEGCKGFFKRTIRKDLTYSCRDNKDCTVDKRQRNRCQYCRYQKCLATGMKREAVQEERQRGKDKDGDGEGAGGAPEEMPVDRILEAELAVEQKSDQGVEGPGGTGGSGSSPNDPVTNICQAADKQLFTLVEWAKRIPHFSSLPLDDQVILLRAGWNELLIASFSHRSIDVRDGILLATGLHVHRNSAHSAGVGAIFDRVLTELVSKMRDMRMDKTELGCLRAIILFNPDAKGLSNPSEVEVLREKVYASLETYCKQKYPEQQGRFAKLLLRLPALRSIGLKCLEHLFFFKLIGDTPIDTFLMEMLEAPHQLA
Description: Agonist activity at human RXRbeta expressed in human HeLa cells assessed as relative luminescence units by luciferase assay relative to control. Format: functional, cell-based.

Activity calls are given as the source filed them. The calls are words filed in the database; no cut-off is given here.

Regarding `CC(=C/C=C/C(C)=C/C(=O)O)/C=C/C1=C[C@H](C)CC[C@H]1C(C)C`, the result was Active.

These data come from ChEMBL document CHEMBL1142549, “New retinoid chemotypes: 9-cis-retinoic acid analogs with hydrophobic rings derived from terpenes as selective RAR agonists” (Bioorg Med Chem, 2008).
